# Non-standard residues stand in square brackets, D forms with d. pGlu = O=C1CC[C@@H](C(=O)O)N1
# How the values were obtained:
# Format in all cases: cell-based, human
# [1] = system: gluten-reactive T cells; assay: 96-well plate whole blood cytokine release, IP-10 by MAGPIX multiplex bead assay; conditions: for Percent of maximal response to individual gluten peptides, IP-10: after oral gluten challenge; for IP-10 WB MAGPIX % max Mean: n = 10, blood after oral gluten challenge, individual peptides 5 μM (Peptide 2* of P14, Pepscan: 10 μg/mL (5.45 μM))
# [2] = system: gluten-reactive T cells; assay: Overnight IFNγ ELISpot assay with fresh PBMC; conditions: for Percent of maximal response to individual gluten peptides, ELISp: after oral gluten challenge; for IFNγ ELISpot % max Mean: n = 5, blood after oral gluten challenge, individual peptides 5 μM (Peptide 2* of P14, Pepscan: 10 μg/mL (5.45 μM))
# Experimental: HLA-DQ2.5-positive celiac disease subjects on gluten-free diet were used in this study. Blood was collected immediately before and 6 days after commencing 3-day oral gluten challenge. Whole blood or PBMCs were incubated with pools or single peptides derived from gluten or recall antigens. IFNγ and IP-10 levels were measured in plasma from the whole blood that was incubated in 96-well plates with peptides or peptide pools. Plasma cytokine/chemokine levels were measured by MAGPIX® multiplex bead assay (IFNγ and IP-10) or by ELISA (IFNγ and IP-10), and PBMC separated from the same blood sample were incubated in overnight IFNγ ELISpot assays.
# Overnight IFNγ ELISpot assays (Human IFN-γ ELISpotPRO kit, transparent, ALP; Mabtech AB, #3420-2APT-10) were performed using PBMC freshly separated from heparinized blood diluted 1:1 in PBS with 2% fetal bovine serum (Stemcell Technologies #07905; Vancouver, BC, V5Z 1B3, Canada) overlaid on density gradient medium (Ficoll-Paque™ PLUS; GE Healthcare Lice Sciences #:17-1440-02) in SepMate™-50 tubes (Stemcell Technologies #15460). PBMC (8 million/mL) were resuspended in serum-free medium with gentamicin and phenol red (X-VIVO™15; Lonza, Walkersville Mass. 21793). PBMC (0.4 million/50 pt/well) and incubated with 50 μL 80% X-vivo15, 0.2% DMSO and 20% PBS in three triplicate wells (“medium only”), or with 50 μL PHA-L 20 μg/ml or peptide at 2× final concentration in 80% X-vivo15, 0.2% DMSO and 20% PBS. Peptide solutions to be added to individual ELISpot wells were prepared in 96-well U-bottom plates (60 pt/well) that were then sealed with adhesive ELISA plate cover slips before replacing the plastic lid and being frozen at −80° C. 96-well plates containing peptide solutions were thawed at room temperature for 10 min while being centrifuged at 300 g immediately prior to being added to ELISpot wells. Peptide pools and mitogen were assessed in triplicate wells, and individual peptides were assessed in duplicate wells. X-VIVO™15 (50 μL) was incubated with 80% X-vivo15, 0.2% DMSO and 20% PBS (50 μL) in triplicate wells (“no PBMC” control). A Zeiss automated ELISpot counter was used to determine spot forming units (SFU) per well (Zellnet Inc., Fort Lee, N J 07024). Laboratory staff were unaware of the arrangement of peptide solutions in ELISpot wells during assay setup and plate counting.
# [3] = system: gluten-reactive T cells; assay: Cytokine release assays taken together (IFNγ ELISpot, whole blood IFNγ and IP-10, in-tube IFNγ ELISA)
# Experimental: Gluten peptide solutions for addition to whole blood were arranged according to standardized templates in sterile 96-well U-bottom plates (30 μL/well). Plates were sealed with adhesive ELISA plate cover slips before the plastic lid was replaced and being frozen at −80° C. Whole blood assay (WBA) “medium” (1% DMSO in 90% PBS and 9% normal saline), mitogen (PHA-L, Sigma-Aldrich #L2769; St Louis Mo.) 100 μg/ml in WBA medium, and CEF diluted to 10 μg/ml in PBS with a final concentration of 1% DMSO were frozen separately in sterile cryovials. 96-well plates and cryovials with frozen incubation solutions were shipped on dry ice to the clinical site where blood was collected and incubations performed. Solutions were thawed at room temperature for 10 min just before being added to whole blood. 96-well plates were thawed while being centrifuged at 300 g to avoid surface condensation. A multi-channel pipette was used to efficiently transfer 25 μL of peptide solutions from the original 96-well plate to corresponding wells in a fresh sterile 96-well U-bottom plate. Once incubation solutions had been added, 225 μL of whole blood was added to each well and the plate transferred to incubate for 24 h at 37° C. 5% CO2. […] Individual peptides were incubated at a final assay concentration of 51.1M. Final concentrations of individual peptides assessed in P3 was 0.05-50 μg/mL, and in P14 and P13 pools 0.025-25 μM. The P71 pool was tested at between 0.005-10 pg/mL, the highest tested concentration being the maximal possible not exceeding 0.1% DMSO. Peptide pools, mitogen, and medium only were assessed in triplicate wells, and on Day-6 individual peptides were assessed in duplicate wells. Incubations were terminated after 24 h, and 96-well plates centrifuged at 300 g for 10 min. A total of approximately 90 to 120 μL of plasma was removed from each well taking care to avoid red cell contamination, and transferred into corresponding wells of two further 96-well plates (one with 30 μL/well and the residual in the second plate). Plasmas were frozen at −80° C. and later shipped on dry ice to the central lab where IP-10 and IFNγ multiplex bead assays were performed according to manufacturer's instructions using 25 μL plasma per well (Milliplex® MAP Human Cytokine/Chemokine Magnetic Bead Panel #HCYTOMAG-60k-02; EMD Millipore Corp., Billerica, Mass. 01821) and analysed with the Luminex® MAGPIX® System xPONENT® software (Luminex Corporation, Austin Tex. 78727). Plasma cytokine levels for each assay condition were expressed as the mean analyte concentration of each of the three replicate incubations. Laboratory staff were unaware of the arrangement of peptide solutions incubated with during assay setup and plate counting.
# Aliquots of PBS, P3 peptides diluted in PBS (final concentration in blood 3× 50 or CEF to a final concentration 1 μg/mL were prepared in sterile cryovials (0.11 mL/vial) and stored frozen (−80° C.) until immediately before use. P3, CEF and two PBS aliquots were drawn up in separate sterile 0.3 mL insulin syringes with attached 29G×½″ needle (Terumo, SS*30M2913; Elkton Md. 21921). P3, CEF and one PBS aliquot was injected through the stoppers of three separate QuantiFERON® NIL tubes already containing 1 mL blood, and one aliquot of PBS was injected into a QuantiFERON® MITOGEN tube already containing 1 mL blood. All four tubes containing blood and incubation solution were gently inverted ten-times and transferred to incubate at 37° C. 5% CO2. After for 24 h, tubes were centrifuged 300 g 10 min. Plasma was separated and equal volumes placed in two 1.5 mL cryovials. Frozen plasmas were transferred to the central lab where IFNγ levels were measured in triplicate 50 μL samples by ELISA (MABtech Human IFN-γ ELISA development kit HRP, 3420-1H-6; capture mAb 1-D1K). […]
# [4] = blood collected after oral gluten challenge
Substance,"Percent of maximal response to individual gluten peptides, IP-10 ([1]; Subject 1, Max. 2331 pg/mL)","Percent of maximal response to individual gluten peptides, IP-10 ([1]; Subject 2, Max. 3646 pg/mL)","Percent of maximal response to individual gluten peptides, IP-10 ([1]; Subject 3, Max. 9492 pg/mL)","Percent of maximal response to individual gluten peptides, IP-10 ([1]; Subject 4, Max. 9463 pg/mL)","Percent of maximal response to individual gluten peptides, IP-10 ([1]; Subject 5, Max. 9336 pg/mL)","Percent of maximal response to individual gluten peptides, IP-10 ([1]; Subject 6, Max. 5863 pg/mL)","Percent of maximal response to individual gluten peptides, IP-10 ([1]; Subject 7, Max. 2330 pg/mL)","Percent of maximal response to individual gluten peptides, IP-10 ([1]; Subject 8, Max. 4019 pg/mL)","Percent of maximal response to individual gluten peptides, IP-10 ([1]; Subject 9, Max. 8349 pg/mL)","Percent of maximal response to individual gluten peptides, IP-10 ([1]; Subject 10, Max. 8922 pg/mL)",IP-10 WB MAGPIX % max Mean [1],"Percent of maximal response to individual gluten peptides, ELISp ([2]; Subject 3, Max. 18 SFU)","Percent of maximal response to individual gluten peptides, ELISp ([2]; Subject 4, Max. 36 SFU)","Percent of maximal response to individual gluten peptides, ELISp ([2]; Subject 6, Max. 16 SFU)","Percent of maximal response to individual gluten peptides, ELISp ([2]; Subject 8, Max. 17 SFU)","Percent of maximal response to individual gluten peptides, ELISp ([2]; Subject 10, Max. 11 SFU)",IFNγ ELISpot % max Mean [2],"activity relative to Peptide 14 in the cytokine release assays [3, 4]","rank of activity among individual gluten peptides [3, 4]",cytokine release / immunogenicity of individual peptide ([3]; HLA-DQ2.5+ celiac disease subjects after gluten challenge)
(pE)LQPFPQPELPYPQPQ-amide ([pGlu]LQPFPQPELPYPQPQ-NH2; SMILES CC(C)C[C@H](NC(=O)[C@@H]1CCC(=O)N1)C(=O)N[C@@H](CCC(N)=O)C(=O)N1CCC[C@H]1C(=O)N[C@@H](Cc1ccccc1)C(=O)N1CCC[C@H]1C(=O)N[C@@H](CCC(N)=O)C(=O)N1CCC[C@H]1C(=O)N[C@@H](CCC(=O)O)C(=O)N[C@@H](CC(C)C)C(=O)N1CCC[C@H]1C(=O)N[C@@H](Cc1ccc(O)cc1)C(=O)N1CCC[C@H]1C(=O)N[C@@H](CCC(N)=O)C(=O)N1CCC[C@H]1C(=O)N[C@@H](CCC(N)=O)C(N)=O) [Peptide 1],100 % of max,100 % of max,≥ 100 % of max,96 % of max,14 % of max,23 % of max,39 % of max,3 % of max,75 % of max,34 % of max,58 % max,11 % of max,22 % of max,25 % of max,0 % of max,9 % of max,13 % max,no more than two-thirds as active as Peptide 14,the most active of this group of related peptides,–
(pE)PEQPEQPFPEQPQQ-amide ([pGlu]PEQPEQPFPEQPQQ-NH2; SMILES NC(=O)CC[C@H](NC(=O)[C@H](CCC(N)=O)NC(=O)[C@@H]1CCCN1C(=O)[C@H](CCC(N)=O)NC(=O)[C@H](CCC(=O)O)NC(=O)[C@@H]1CCCN1C(=O)[C@H](Cc1ccccc1)NC(=O)[C@@H]1CCCN1C(=O)[C@H](CCC(N)=O)NC(=O)[C@H](CCC(=O)O)NC(=O)[C@@H]1CCCN1C(=O)[C@H](CCC(N)=O)NC(=O)[C@H](CCC(=O)O)NC(=O)[C@@H]1CCCN1C(=O)[C@@H]1CCC(=O)N1)C(N)=O) [Peptide 11],0 % of max,0 % of max,6 % of max,2 % of max,0 % of max,0 % of max,0 % of max,0 % of max,0 % of max,0 % of max,1 % max,0 % of max,3 % of max,6 % of max,6 % of max,0 % of max,3 % max,–,–,weak or not distinguishable from medium alone
(pE)PEQPFPEQPIPEQPQPYP-amide ([pGlu]PEQPFPEQPIPEQPQPYP-NH2; SMILES CC[C@H](C)[C@H](NC(=O)[C@@H]1CCCN1C(=O)[C@H](CCC(N)=O)NC(=O)[C@H](CCC(=O)O)NC(=O)[C@@H]1CCCN1C(=O)[C@H](Cc1ccccc1)NC(=O)[C@@H]1CCCN1C(=O)[C@H](CCC(N)=O)NC(=O)[C@H](CCC(=O)O)NC(=O)[C@@H]1CCCN1C(=O)[C@@H]1CCC(=O)N1)C(=O)N1CCC[C@H]1C(=O)N[C@@H](CCC(=O)O)C(=O)N[C@@H](CCC(N)=O)C(=O)N1CCC[C@H]1C(=O)N[C@@H](CCC(N)=O)C(=O)N1CCC[C@H]1C(=O)N[C@@H](Cc1ccc(O)cc1)C(=O)N1CCC[C@H]1C(N)=O) [Peptide 14],2 % of max,31 % of max,≥ 100 % of max,≥ 100 % of max,100 % of max,100 % of max,100 % of max,91 % of max,≥ 100 % of max,≥ 100 % of max,82 % max,100 % of max,100 % of max,100 % of max,100 % of max,100 % of max,100 % max,–,most active,–

# Source: US20170045513A1, “METHODS OF DIAGNOSING CELIAC DISEASE USING IP-10” (ImmusanT, Inc., priority 2014, published 2017)
